Tests used:
Cándida albicans = settings: cited from earlier work
[1] = system: Xanthomonas campestris p.v. phaseoli; experiment: Effect of the antipathogenic protein on bacterial pathogens (growth inhibition); format: cell-based; settings: concentration where the bacteria growth is inhibit in a 50%; ± standard deviation
[2] = system: Erwinia carotovorum p.v. carotovora; experiment: as above; format: cell-based; settings: concentration where the bacteria growth is inhibit in a 50%; ± standard deviation
[3] = system: Erwinia chrysanthemi p.v. zea; experiment: as above; format: cell-based; settings: concentration where the bacteria growth is inhibit in a 50%; ± standard deviation
Phytophthora infestans = format: cell-based; settings: different concentrations
[4] = system: Pseudomonas syringae p.v. syringae; experiment: Effect of the antipathogenic protein on bacterial pathogens (growth inhibition); format: cell-based; settings: concentration where the bacteria growth is inhibit in a 50%; ± standard deviation
Pseudomonas avenae = experiment: as above; format: cell-based; settings: concentration where the bacteria growth is inhibit in a 50%; ± standard deviation
several plant pathogens = format: cell-based

Rs-AFP2: plant anti-pathogenic protein from the literature (QKLCQRPSGTWSGVCGNNNACKNQCIRLEKARHGSCNYVFPAHKCICYFPC; UniProt P30230 30-80, looked up)
activity against Cándida albicans (Cándida albicans): active in micromolar concentrations

NmDef-02: new anti-pathogenic small cysteine rich protein isolated from Nicotiana megalosiphon; also chemically synthesized without the signal peptide (RECKAQGRHTTCFRDANCVQVCEKQAGWSHGDCRAQFKCKCIFEC; Nicotiana megalosiphon)
IC50 [1]: 40 ± 3 µM | IC50 [2]: 86 ± 8 µM | IC50 [3]: 11 ± 8 µM | inhibition of the growth of P. infestans (Phytophthora infestans; FIG. 4B): high levels of inhibition growth | IC50 [4]: 26 ± 6 µM | IC50 (Pseudomonas avenae): 17 ± 5 µM

SEQ ID No. 9: fragment of the antipathogenic protein NmDef-02 obtained by chemical synthesis (QAGWSHGDCRAQFKCKCIFEC; Nicotiana megalosiphon)
effect of fragments on the pathogen P. infestans (Phytophthora infestans; FIG. 6): control or inhibition of pathogen

B1: NmDef-Plus: antipathogenic protein fused to the signal peptide of the Saccharomyces cerevisiae alpha factor, expressed in Pichia pastoris (protein)
chain: APVNTTTEDETAQIPAEAVIGYSDLEGDFDVAVLPFSNSTNNGLLFINTTIASIAAKEEGVSRECKAQGRHTTCFRDANCVQVCEKQAGWSHGDCRAQFKCKCIFEC
inhibition of the growth of plant pathogens (several plant pathogens): high levels of inhibition growth

— US9055744B2 (priority 2008, dated 2015)
